Measurements as given in publication PMC8587151, “Dibenzofuran Derivatives Inspired from Cercosporamide as Dual Inhibitors of Pim and CLK1 Kinases” (Molecules, 2021).
Where “and” joins values, the source holds several entries; their conditions need not be identical. Equal values may be shown once. Read-outs that look alike come from different tables or passages of the source.

Experiments:
[1] = system: Pim-1; conditions: Figure 1; cited from earlier work
[2] = system: Pim-2; conditions: Figure 1; cited from earlier work
[3] = biological target: T1, HsPim-1 (Homo sapiens, UniProt P11309); experiment: Kinase assay, luminescent ADP-Glo, 10 µM ATP; type: biochemical; conditions: ADP-Glo, 10 µM ATP
T1 construct: made in house; host or cells: Escherichia coli BL21 DE3 pLysS
T1 sequence (P11309 whole entry): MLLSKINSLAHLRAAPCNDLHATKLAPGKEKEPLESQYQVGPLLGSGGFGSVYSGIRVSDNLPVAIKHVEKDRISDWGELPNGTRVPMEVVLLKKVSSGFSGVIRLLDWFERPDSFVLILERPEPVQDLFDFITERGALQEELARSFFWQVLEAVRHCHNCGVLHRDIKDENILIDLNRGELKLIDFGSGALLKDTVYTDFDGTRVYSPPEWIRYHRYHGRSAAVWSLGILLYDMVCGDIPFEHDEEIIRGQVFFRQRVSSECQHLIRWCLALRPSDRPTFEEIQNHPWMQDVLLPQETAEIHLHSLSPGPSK
Procedure: (§1) The synthesized compounds were tested using a luminescence-based assay against a panel of nine kinases: Pim-1, Pim-2, CDK5/p25, CDK9/CyclinT, Haspin, CK1ε, and GSK3β (from human); DYRK1A (from Rattus norvegicus); and CLK1 (from Mus musculus).
(§2) Kinase enzymatic activities were assayed with 10 µM ATP in 384-well plates using the luminescent ADP-Glo^TM assay (Promega, Madison, WI, USA) according to the recommendations of the manufacturer (see [56] for details on this method). The transmitted signal was measured using the Envision (PerkinElmer, Waltham, MA, USA) microplate luminometer and expressed in relative light unit (RLU). In order to determine the half maximal inhibitory concentration (IC50), the assays were performed in duplicate in the absence or presence of increasing doses of the tested compounds. GraphPad Prism6 software (GraphPad Software, San Diego, CA, USA) was used to fit dose–response curves and to determine the IC50 values. Kinase activities are expressed in % of maximal activity, i.e., measured in the absence of inhibitor. Peptide substrates were obtained from Proteogenix (Schiltigheim, France).
(§3) For kinases expressed in bacteria, the Escherichia coli BL21 DE3 pLysS strain (Invitrogen, ThermoFisher Scientific, Waltham, MA, USA) was transformed with pGEX-2T-1 (Sigma-Aldrich, St. Louis, MO, USA) containing the coding region of the corresponding kinase. For kinases expressed in Sf9 insect cells, the coding region of the corresponding kinase was cloned in pFastBac^TM vector. Purification of the recombinant kinases was performed following the protocol “Bac-to-Bac® Baculovirus Expression System” provided by the manufacturer (Invitrogen, ThermoFisher Scientific, Waltham, MA, USA).
(§4) To validate the kinase assay, model inhibitors were used for each tested enzyme: Staurosporine from Streptomyces sp. (#S5921, purity ≥ 95%, Sigma-Aldrich) for HsCK1ε; Indirubin-30-oxime (#I0404, purity ≥ 98%, Sigma-Aldrich) for HsGSK-3β, HsPim-1 and 2, human cyclin-dependent kinases, RnDYRK1A and MmCLK1; CHR-6494 (#SML0648, purity ≥ 98%, Sigma-Aldrich) for Haspin.

[4] = system: L929 cells; experiment: MTT assay, in vitro toxicity on normal cells; type: cell-based; conditions: 72 h, normal mouse fibroblasts
From the text: (§5) Various types of hematological malignancies were selected for in vitro testing: the human acute myeloid leukemia (AML) cell line MV4-11, and the human chronic myeloid leukemia (CML) cell lines KU812 and K562. Indeed, Pim kinases are overexpressed in a wide range of hematopoietic malignancies. Solid tumors were also included in the panel of tested cell lines: MCF-7 (human breast adenocarcinoma), HT-29 (human colon adenocarcinoma), and HeLa (human cervical cancer) cells. Cytotoxic effects were evaluated using an MTT assay, and living cells were also counted with the trypan blue dye exclusion method for MV4-11, KU812, and K562 cells.
(§6) The cancer cell lines MCF-7, HT-29, and HeLa were obtained from Cell Bank of Rio de Janeiro, Brazil, and were grown in RPMI-1640 medium and L929 cells were grown in Dulbecco’s Modified Eagle’s Medium (DMEM). Both media were supplemented with fetal bovine serum (FBS) (10% of the final concentration) followed by treatment with penicillin and streptomycin as antibiotics (1% of the final concentration). The crude was incubated in the presence of CO2 atmosphere (5%) for 24 h with the temperature monitored and maintained at 37 °C.
(§7) MCF-7, HT-29, HeLa, and L929 cells (3×10^5 cells/mL) were plated in 96-well plates and incubated in the presence of CO2 atmosphere (5%) for 24 h at 37 °C. […] Then, 25 μL of MTT (5 mg/mL in PBS) were added to each well and the plates were left for another 3 h in the incubator at 37 °C and at the end of this period, the supernatant was aspirated. To perform the reading, 100 μL of dimethylsulfoxide (DMSO) were added in each well for the dissolution of the formazan crystals. The amount of formazan was measured by reading the plate at 560 nm absorbance. […] Each sample was tested in triplicate in two independent experiments.

[5] = system: MV4-11 cells; experiment: MTT cell proliferation assay; type: cell-based, human; conditions: mean ± SEM; for IC50: Homo sapiens, MV4-11, 48 h
From the text: as §5
(§8) MV4-11, K562, and KU812 cell lines were obtained from the Deutshe Sammlung von Mikroorganismens und Zellkulturen (DSMZ) and maintained according to the supplier’s recommendations. All cell lines were cultured in RPMI, with 10% fetal bovine serum, 1% glutamine, and 1% penicillin/ streptomycin at 37 °C and 5% CO2.
(§9) MV4-11, K562, and KU812 cells’ viability was studied using a MTT cell proliferation assay.
(§10) MV4-11, K562, and KU812 cells were incubated with 10 μL of MTT working solution (5 g/L of methylthiazolyldiphenyl-tetrazolium bromide from Sigma Aldrich, Lyon, France) for 4 h. Cells were then lysed overnight at 37 °C with 100 μL of 10% SDS and 0.003% HCl. Optical density (OD) at 570 nm was measured using a spectrophotometer CLARIOstar® (BMG Labtech, Offenburg, Germany). Living cells were also counted with the trypan blue dye exclusion method. […] Data were collected from at least three independent experiments and the values reported are means ± standard errors of the mean (SEM).

[6] = system: KU812 cells; experiment: MTT cell proliferation assay; type: cell-based; conditions: Homo sapiens, 48 h, mean ± SEM
From the text: as §5, §8, §9, §10

[7] = system: K562 cells; experiment: MTT cell proliferation assay; type: cell-based; conditions: Homo sapiens, 48 h, mean ± SEM
From the text: as §5, §8, §9, §10

[8] = system: HeLa cells; experiment: MTT cytotoxicity assay; type: cell-based; conditions: Homo sapiens, 72 h
From the text: as §5, §6, §7

[9] = system: MCF-7 cells; experiment: MTT cytotoxicity assay; type: cell-based; conditions: Homo sapiens, MCF7, 72 h
From the text: as §5, §6, §7

[10] = biological target: T2, HsPim-2 (Homo sapiens, UniProt Q9P1W9); experiment: Kinase assay, luminescent ADP-Glo, 10 µM ATP; type: biochemical; conditions: mean of n ≥ 3, read-out: IC50 Pim-2
T2 construct: made in house; host or cells: Escherichia coli BL21 DE3 pLysS
T2 sequence (Q9P1W9 whole entry): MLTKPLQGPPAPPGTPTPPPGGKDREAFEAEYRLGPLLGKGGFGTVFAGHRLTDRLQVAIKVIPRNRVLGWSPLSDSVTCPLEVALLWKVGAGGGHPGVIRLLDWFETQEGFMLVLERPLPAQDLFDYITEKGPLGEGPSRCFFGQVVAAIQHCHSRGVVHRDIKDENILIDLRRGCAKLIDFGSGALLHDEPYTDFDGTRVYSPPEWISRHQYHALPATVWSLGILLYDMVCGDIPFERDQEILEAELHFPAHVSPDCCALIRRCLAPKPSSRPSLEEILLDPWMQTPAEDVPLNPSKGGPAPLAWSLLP
Procedure: as §1, §2, §3, §4

[11] = biological target: T3, HsCDK9/CyclinT (Homo sapiens, UniProt P50750); experiment: Kinase assay, luminescent ADP-Glo, 10 µM ATP; type: biochemical; conditions: duplicate, read-out: Kinase Enzymatic IC50 CDK9/CyclinT
T3 construct: made in house; host or cells: Sf9 insect cells (baculovirus, pFastBac)
T3 sequence (P50750 whole entry): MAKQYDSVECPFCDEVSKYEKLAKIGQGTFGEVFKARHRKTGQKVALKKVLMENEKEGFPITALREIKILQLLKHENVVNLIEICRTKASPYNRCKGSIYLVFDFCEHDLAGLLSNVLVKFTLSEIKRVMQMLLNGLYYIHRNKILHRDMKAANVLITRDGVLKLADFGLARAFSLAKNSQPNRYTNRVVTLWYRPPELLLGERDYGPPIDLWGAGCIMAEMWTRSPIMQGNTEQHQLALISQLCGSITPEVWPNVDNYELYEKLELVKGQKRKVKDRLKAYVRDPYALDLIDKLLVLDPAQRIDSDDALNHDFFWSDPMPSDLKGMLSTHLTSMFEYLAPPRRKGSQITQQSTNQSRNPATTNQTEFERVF
T3 sequence (O60563 whole entry partner): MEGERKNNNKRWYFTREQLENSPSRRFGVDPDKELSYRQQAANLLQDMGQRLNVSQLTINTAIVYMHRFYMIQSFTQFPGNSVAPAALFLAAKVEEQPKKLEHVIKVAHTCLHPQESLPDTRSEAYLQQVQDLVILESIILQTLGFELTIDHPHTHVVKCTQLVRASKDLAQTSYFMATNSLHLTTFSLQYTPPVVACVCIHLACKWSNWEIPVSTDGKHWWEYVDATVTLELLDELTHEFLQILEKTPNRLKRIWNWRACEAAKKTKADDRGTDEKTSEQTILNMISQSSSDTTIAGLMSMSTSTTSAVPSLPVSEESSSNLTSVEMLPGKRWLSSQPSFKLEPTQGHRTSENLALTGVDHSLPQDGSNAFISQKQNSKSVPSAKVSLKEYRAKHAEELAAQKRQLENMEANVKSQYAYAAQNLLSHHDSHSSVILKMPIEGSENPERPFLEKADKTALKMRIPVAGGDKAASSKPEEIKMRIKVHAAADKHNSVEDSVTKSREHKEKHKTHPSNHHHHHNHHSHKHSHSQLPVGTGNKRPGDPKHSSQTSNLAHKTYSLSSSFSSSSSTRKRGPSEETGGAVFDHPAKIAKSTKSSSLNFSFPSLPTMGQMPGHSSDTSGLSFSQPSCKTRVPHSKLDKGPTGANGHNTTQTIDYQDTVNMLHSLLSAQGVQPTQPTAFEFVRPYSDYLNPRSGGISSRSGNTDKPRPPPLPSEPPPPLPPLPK
Procedure: as §1, §2, §3, §4

[12] = biological target: T4, MmCLK1 (Mus musculus, UniProt P22518); experiment: Kinase assay, luminescent ADP-Glo, 10 µM ATP; type: biochemical; conditions: for IC50: ADP-Glo, 10 µM ATP, duplicate, read-out: Kinase Enzymatic IC50 CLK1
T4 construct: made in house; host or cells: Escherichia coli BL21 DE3 pLysS
T4 sequence (P22518 whole entry): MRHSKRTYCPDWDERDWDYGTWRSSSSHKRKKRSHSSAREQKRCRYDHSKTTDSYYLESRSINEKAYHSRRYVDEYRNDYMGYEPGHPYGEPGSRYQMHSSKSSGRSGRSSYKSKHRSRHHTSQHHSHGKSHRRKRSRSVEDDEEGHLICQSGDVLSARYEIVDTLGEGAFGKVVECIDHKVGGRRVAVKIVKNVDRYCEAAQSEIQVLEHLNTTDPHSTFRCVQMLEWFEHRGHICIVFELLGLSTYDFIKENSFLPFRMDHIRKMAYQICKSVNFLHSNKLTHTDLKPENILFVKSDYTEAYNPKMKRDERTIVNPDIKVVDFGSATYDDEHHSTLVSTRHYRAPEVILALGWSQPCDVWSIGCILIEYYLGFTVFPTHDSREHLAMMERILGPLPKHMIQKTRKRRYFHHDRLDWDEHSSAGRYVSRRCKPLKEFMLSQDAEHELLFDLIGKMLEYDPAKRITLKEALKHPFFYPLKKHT
Procedure: as §1, §2, §3, §4

[13] = biological target: T5, HsCDK5/p25 (Homo sapiens, UniProt Q00535); experiment: Kinase assay, luminescent ADP-Glo, 10 µM ATP; type: biochemical; conditions: duplicate, read-out: Kinase Enzymatic IC50 CDK5/p25
T5 construct: made in house; host or cells: Escherichia coli BL21 DE3 pLysS
T5 sequence (Q00535 whole entry): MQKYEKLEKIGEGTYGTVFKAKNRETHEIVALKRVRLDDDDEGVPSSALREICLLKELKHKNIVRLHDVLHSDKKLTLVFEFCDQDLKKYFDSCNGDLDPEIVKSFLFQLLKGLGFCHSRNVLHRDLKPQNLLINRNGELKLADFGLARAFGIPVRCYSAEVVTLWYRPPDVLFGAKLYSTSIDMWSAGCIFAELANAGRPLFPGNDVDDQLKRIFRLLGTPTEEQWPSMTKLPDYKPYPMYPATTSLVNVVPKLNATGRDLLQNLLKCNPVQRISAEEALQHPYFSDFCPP
T5 sequence (Q15078 99-307 partner limits assumed): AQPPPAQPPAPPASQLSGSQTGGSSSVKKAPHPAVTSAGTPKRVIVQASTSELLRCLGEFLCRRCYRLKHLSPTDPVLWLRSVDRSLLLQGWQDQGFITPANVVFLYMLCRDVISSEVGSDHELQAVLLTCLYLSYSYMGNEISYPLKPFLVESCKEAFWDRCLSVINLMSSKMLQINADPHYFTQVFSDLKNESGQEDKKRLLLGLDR
Procedure: as §1, §2, §3, §4

[14] = biological target: RnDYRK1A-kd (Rattus norvegicus, UniProt Q63470); experiment: Kinase assay, luminescent ADP-Glo, 10 µM ATP; type: biochemical; conditions: read-out: IC50 DYRK1A
Procedure: as §1, §2, §3, §4

[15] = Table 1, duplicate, read-out: Kinase Enzymatic IC50 Pim-1
[16] = Table 2, mean of n ≥ 3, read-out: IC50 Pim-1

| melting point [°C] | IC50 [3, 15] | IC50 [5] [µM] | IC50 [7] [µM] | IC50 [3, 16] [µM] | Compound | IC50 [4] [µM] | IC50 [6] [µM] | IC50 [8] [µM] | IC50 [9] [µM] | further results |
| --- | --- | --- | --- | --- | --- | --- | --- | --- | --- | --- |
| 298 to 299 | 3.21 µM | – | – | – | COc1cc(OC)c2c(oc3c([N+](=O)[O-])cccc32)c1C(N)=O [Compound 14, 1,3-Dimethoxy-6-nitrodibenzo[b,d]furan-4-carboxamide] | – | – | – | – | – |
| > 300 | 0.18 µM | 30.7 ± 1.1 | > 100 | 0.18 | NC(=O)c1c(O)cc(O)c2c1oc1c([N+](=O)[O-])cccc12 [Compound 15, 1,3-Dihydroxy-6-nitrodibenzo[b,d]furan-4-carboxamide] | 49.2 ± 1 | 78.4 ± 2.1 | 24.7 ± 6.7 | > 100 | – |
| 293 to 294 | > 10 µM | – | – | – | COc1cc(OC)c2c(oc3c(N)cccc32)c1C(N)=O [Compound 18, 6-Amino-1,3-dimethoxydibenzo[b,d]furan-4-carboxamide] | – | – | – | – | – |
| 296 to 297 | > 10 µM | – | – | – | COc1cc(OC)c2c(oc3ccccc32)c1C(N)=O [Compound 19, 1,3-Dimethoxydibenzo[b,d]furan-4-carboxamide] | – | – | – | – | – |
| – | > 10 µM | – | – | – | COc1cc2oc3c(C(N)=O)c(OC)cc(OC)c3c2cc1C(C)=O [Compound 38, 8-Acetyl-1,3,7-trimethoxydibenzo[b,d]furan-4-carboxamide] | – | – | – | – | – |
| 332 to 333 | > 10 µM | – | – | – | COc1ccc2c(c1)oc1c(C(N)=O)c(OC)cc(OC)c12 [Compound 39, 1,3,7-Trimethoxydibenzo[b,d]furan-4-carboxamide] | – | – | – | – | – |
| 230 to 231 | > 10 µM | – | – | – | COc1cc(OC)c2c(oc3ccc(F)cc32)c1C(N)=O [Compound 41, 8-Fluoro-1,3-dimethoxydibenzo[b,d]furan-4-carboxamide] | – | – | – | – | IC50 [14]: 1.33 µM |
| – | 0.06 µM | 2.6 ± 0.4 | 75.7 ± 11.8 | 0.06 | NC(=O)c1c(O)cc(O)c2c1oc1cc(O)ccc12 [Compound 44, 1,3,7-Trihydroxydibenzo[b,d]furan-4-carboxamide] | 28.4 ± 1.1 | 42.1 ± 1.3 | 10.2 ± 1.2 | 52.5 ± 1.2 | IC50 [10]: 0.035 µM; IC50 [11]: > 10 µM; IC50 [12]: 0.026 µM; IC50 [13]: > 10 µM |
| – | 0.28 µM | 8.8 ± 0.9 | > 100 | 0.28 | CC(=O)c1ccc2oc3c(C(N)=O)c(O)cc(O)c3c2c1 [Compound 45, 8-Acetyl-1,3-dihydroxydibenzo[b,d]furan-4-carboxamide] | > 100 | 69.4 ± 12.9 | 59.6 ± 7.6 | > 100 | IC50 [10]: 0.12 µM; IC50 [11]: > 10 µM; IC50 [12]: 0.14 µM; fold less active than 44 against CLK1 ([12]; ratio of IC50 values): 5 fold; IC50 [13]: > 10 µM |
| 347 to 348 | > 1 µM and 2.35 µM | > 100 | > 100 | 2.35 | NC(=O)c1c(O)cc(O)c2c1oc1ccc(C(F)(F)F)cc12 [Compound 47, 1,3-Dihydroxy-8-(trifluoromethyl)dibenzo[b,d]furan-4-carboxamide] | – | > 100 | – | – | IC50 MV4-11 ([5]; 48 h): inactive |

More lines, now with the values behind:

| Compound | melting point [°C] | IC50 [3, 15] | IC50 [5] [µM] | IC50 [7] [µM] | IC50 [3, 16] [µM] | IC50 [4] [µM] | IC50 [6] [µM] | IC50 [8] [µM] | IC50 [9] [µM] | further results |
| --- | --- | --- | --- | --- | --- | --- | --- | --- | --- | --- |
| CC(=O)C1=C(O)C=C2Oc3c(C(C)=O)c(O)c(C)c(O)c3[C@@]2(C)C1=O [(+)-Usnic acid] | – | – | – | – | – | – | – | – | – | IC50 [1]: 0.21 µM; IC50 [2]: 0.58 µM |
| NC(=O)c1c(O)cc(O)c2c1oc1c(N)cccc12 [Compound 16, 6-Amino-1,3-dihydroxydibenzo[b,d]furan-4-carboxamide] | – | 0.13 µM | 10.1 ± 0.8 | > 100 | 0.13 | > 100 | > 100 | 14.6 ± 7.2 | > 100 | IC50 [10]: 0.085 µM; IC50 [11]: > 10 µM; IC50 [12]: 0.45 µM; IC50 [13]: > 10 µM |
| NC(=O)c1c(O)cc(O)c2c1oc1ccccc12 [Compound 17, 1,3-Dihydroxydibenzo[b,d]furan-4-carboxamide] | 219 to 220 | 0.23 µM | 14.3 ± 1.1 | > 100 | 0.23 | > 100 | > 100 | 9.5 ± 4.1 | > 100 | IC50 [12]: 0.26 µM |
| COc1cc(OC)c2c(oc3ccc(C(C)=O)cc32)c1C(N)=O [Compound 40, 8-Acetyl-1,3-dimethoxydibenzo[b,d]furan-4-carboxamide] | 237 to 238 | > 10 µM | – | – | – | – | – | – | – | – |
| COc1cc(OC)c2c(oc3ccc(C(F)(F)F)cc32)c1C(N)=O [Compound 42, 1,3-Dimethoxy-8-(trifluoromethyl)dibenzo[b,d]furan-4-carboxamide] | 250 to 251 | > 10 µM | – | – | – | – | – | – | – | – |
| CC(=O)c1cc2c(cc1O)oc1c(C(N)=O)c(O)cc(O)c12 [Compound 43, 8-Acetyl-1,3,7-trihydroxydibenzo[b,d]furan-4-carboxamide] | 335 to 336 | 0.82 µM | 52.2 ± 1.7 | > 100 | 0.82 | > 100 | > 100 | 57.1 ± 7.6 | > 100 | IC50 [10]: 0.14 µM |
| CN1CCC(CNc2ccc3ncc(-c4cccc(OC(F)(F)F)c4)n3n2)CC1 [SGI-1776, reference compound] | – | – | 0.03 ± 0.003 | 3.7 ± 1.5 | – | – | 3.5 ± 0.6 | – | – | – |
